{"source": "paper PMC5685639", "about": "“A trehalose biosynthetic enzyme doubles as an osmotic stress sensor to regulate bacterial morphogenesis” (PLoS Genetics, 2017)", "biological_target": "T1, OtsA (Arthrobacter alpinus, UniProt C7EZF1)", "T1 construct": "recombinant, expressed in and purified from E. coli; self-assembles into large networks", "T1 sequence (C7EZF1 1-495)": "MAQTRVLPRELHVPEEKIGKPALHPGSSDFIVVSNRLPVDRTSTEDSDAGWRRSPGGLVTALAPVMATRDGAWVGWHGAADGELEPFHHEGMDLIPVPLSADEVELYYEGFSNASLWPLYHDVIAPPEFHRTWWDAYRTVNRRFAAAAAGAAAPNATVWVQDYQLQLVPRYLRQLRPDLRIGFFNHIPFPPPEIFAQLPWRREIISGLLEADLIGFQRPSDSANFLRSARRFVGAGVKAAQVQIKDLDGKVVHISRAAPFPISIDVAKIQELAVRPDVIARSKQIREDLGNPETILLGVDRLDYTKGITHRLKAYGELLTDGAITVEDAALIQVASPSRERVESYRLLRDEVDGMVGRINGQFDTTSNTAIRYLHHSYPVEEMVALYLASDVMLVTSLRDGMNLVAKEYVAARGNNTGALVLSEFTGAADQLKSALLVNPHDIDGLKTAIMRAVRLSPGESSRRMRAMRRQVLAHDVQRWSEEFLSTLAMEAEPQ", "experiment": "dynamic light scattering, self-assembly promoted by T6P", "assay_type": "binding", "conditions": "10 uM OtsA, 20 mM Tris HCl pH 7.5, 1 mM MgCl2, 1 M urea, 20 °C; up to 500 uM T6P; T6P is also the enzyme product"}
{"smiles": "O=P(O)(O)OC[C@H]1O[C@H](O[C@H]2O[C@H](CO)[C@@H](O)[C@H](O)[C@H]2O)[C@H](O)[C@@H](O)[C@@H]1O", "note": "[T6P, trehalose-6-phosphate]", "values": [{"measurement": "dynamic light scattering, self-assembly promoted by T6P", "result": "increasing concentrations of this metabolite had a dramatic effect on promoting the rate of OtsA polymerization"}]}
